Values quoted from earlier work as cited in patent US11273077B2, “Wound packing material comprising chemoeffector” (priority 2015, dated 2022).

What was measured:
Escherichia Coli = settings: Tar and Tsr receptor mediated

SMILES	ligand specificity as chemoattractant (Enterobacteria)	concentration that induces E. coli chemotaxis (Escherichia Coli)	specificity of chemotaxis toward intermediates of amino acid metabolism (Pseudomonas Aeruginosa)
N[C@@H](CO)C(=O)O [L-serine]	high ligand specificity	nanomolar range	
NCCCC(=O)O [GABA, gamma-aminobutyrate]			high specificity
